Data published in ChEMBL document CHEMBL1671791, “Electron paramagnetic resonance (EPR) study of spin-labeled camptothecin derivatives: a different look of the ternary complex” (J Med Chem, 2011).
Active and inactive are the calls of the source. The rule behind the calls is not given here.

Experiments:
[1] = target: T1, DNA topoisomerase 1 (Homo sapiens) (UniProt P11387); experiment: Reversible inhibition of human recombinant DNA topoisomerase 1-mediated DNA cleavage at 0.1 to 100 uM after 20 mins
T1 sequence (whole entry): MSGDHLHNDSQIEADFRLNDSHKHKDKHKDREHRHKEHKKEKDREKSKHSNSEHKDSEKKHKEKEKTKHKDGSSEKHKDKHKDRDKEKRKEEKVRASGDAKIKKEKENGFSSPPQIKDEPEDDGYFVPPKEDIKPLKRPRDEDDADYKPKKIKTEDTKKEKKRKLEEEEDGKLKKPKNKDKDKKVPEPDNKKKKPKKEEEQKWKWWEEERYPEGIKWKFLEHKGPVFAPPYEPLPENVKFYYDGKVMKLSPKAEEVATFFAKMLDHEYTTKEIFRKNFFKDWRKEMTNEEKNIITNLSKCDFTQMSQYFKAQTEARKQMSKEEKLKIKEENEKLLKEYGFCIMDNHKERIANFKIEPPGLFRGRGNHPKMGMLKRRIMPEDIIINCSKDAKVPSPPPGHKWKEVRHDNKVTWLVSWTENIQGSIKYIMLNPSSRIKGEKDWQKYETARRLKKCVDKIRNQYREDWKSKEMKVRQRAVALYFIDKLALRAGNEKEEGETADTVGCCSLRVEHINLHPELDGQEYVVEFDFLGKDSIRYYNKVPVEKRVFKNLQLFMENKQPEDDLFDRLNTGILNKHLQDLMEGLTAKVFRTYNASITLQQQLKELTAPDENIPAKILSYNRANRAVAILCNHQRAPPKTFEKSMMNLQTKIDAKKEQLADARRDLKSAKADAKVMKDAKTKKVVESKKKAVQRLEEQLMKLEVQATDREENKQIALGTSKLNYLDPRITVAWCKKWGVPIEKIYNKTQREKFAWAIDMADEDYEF

[2] = target: T1, DNA topoisomerase 1 (Homo sapiens); experiment: Inhibition of human recombinant DNA topoisomerase 1-mediated DNA cleavage at 0.1 to 100 uM after 20 mins
[3] = target: T1, DNA topoisomerase 1 (Homo sapiens); experiment: Binding affinity to human recombinant DNA topoisomerase 1 at 20 uM by electron paramagnetic resonance analysis

inhibition [1]	inhibition [2]	Activity [3]	SMILES
Active	Active	Active	CC[C@@]1(O)C(=O)OCc2c1cc1n(c2=O)Cc2c-1nc1ccccc1c2/C=N/C1CC(C)(C)N([O])C(C)(C)C1
	Active		CC[C@@]1(O)C(=O)OCc2c1cc1n(c2=O)Cc2c-1nc1ccccc1c2C(=O)NC1CC(C)(C)N([O])C(C)(C)C1
